Results from US4831155A (priority 1984, dated 1989).
Read-outs that look alike come from different tables or passages of the source.

Columns and labels:
[1] = molecular target: T1, acetylcholinesterase originating from "Electrophorus electricus" (Electrophorus electricus, UniProt O42275)
[2] = molecular target: T1, acetylcholinesterase originating from "Electrophorus electricus"; assay: biochemical
[3] = acute toxicity (lethal dose) in mice; assay type: in vivo; settings: mouse, in vivo, injection, determined within two hours, read-out: lethal dose 50 (LD50)
Procedure: (§1) The activity of the this product was evaluated in terms of its toxicity (lethal dose: LD) and its behavioural effects.
(§2) The experiments were conducted using male Swiss mice with a weight of about 30 g.
(§3) The acute toxic effects of the heptyl derivative were also evaluated as a comparison with the effects of physostigmine. […] Compared with physostigmine, the lethal dose 50 of the heptyl derivative is about 60 times greater, the LD50 for physostigmine being 0.6 mg/kg. The LD50 values were determined within two hours from the injection. Beyond this time, no obvious effects were observable. The LD50 values of other derivatives according to the present invention, evaluated with the same method resulted as follows: […]

male Swiss mice [4] = assay: acute toxicity (lethal dose) in mice; assay type: in vivo
Procedure: as §1, §2, §3

male Swiss mice [5] = assay: spontaneous locomotor activity in mice (two-part cage); assay type: in vivo
Procedure: (§4) In particular, with regard to this latter aspect, an evaluation was made of the effects of the substance on spontaneous locomotor activity, and of the antagonisms of the heptyl derivative towards the central stimulating effects of anticholinergic drugs (scopolamine). An evaluation was also made of the effects of the substance on the electrocorticographic activity and on the inhibition of cerebral acetylcholinesterase (AchE) "in vivo".
as §2
The test used for measuring the spontaneous locomotor activity was that employing a cage divided into two parts.

male Swiss mice [6] = assay: antagonism towards the central stimulating effects of scopolamine; assay type: in vivo
Procedure: as §4, §2
At the central cholinergic antagonists exert a stimulating action on spontaneous activity, a study was carried out of the antagonism towards the stimulating effects of scopolamine (a typical anticholinergic drug which acts at the central level) by the heptyl derivative. […] These activities show the existence of antagonism towards the central effects of scopolamine, indicative of a central effect of the heptyl derivative.

[7] = system: mice implanted with parietal electrodes; assay: electrocorticographic activity; assay type: in vivo; settings: 10 mg/kg, 15 minutes after administration
Procedure: as §4, §2
The […] was recorded by a Beckmann polygraph.

[8] = system: cerebral acetylcholinesterase (AchE); assay type: in vivo, mice
[9] = system: acetylcholinesterase (AchE); assay: acetylcholinesterase (AChE) inhibition in the brain and serum after i.p. administration; assay type: in vivo, rats; settings: n=4; for AChE inhibition, brain (M ± SE) / AChE inhibition, serum (M ± SE): Table I, 10 min, salicylate
Procedure: The acetylcholinesterase (AchE) inhibition in the brain and serum was tested for the heptyl derivative in comparison with physostigmine. Both physostigmine and heptyl derivative were used in form of salycilate and dissolved in distilled water with carbossimethyl cellulose sodium salt at 2%.

[10] = bimolecular rate constant, value = ki × 10^-5
[11] = Table II, i.p. equiactive doses: Phys. 0.2, Hept. 1.0 mg/Kg
[12] = first order carbamylation rate constant
[13] = first order reactivation rate constant, value = k3 × 10^2

T1 sequence (O42275 24-633): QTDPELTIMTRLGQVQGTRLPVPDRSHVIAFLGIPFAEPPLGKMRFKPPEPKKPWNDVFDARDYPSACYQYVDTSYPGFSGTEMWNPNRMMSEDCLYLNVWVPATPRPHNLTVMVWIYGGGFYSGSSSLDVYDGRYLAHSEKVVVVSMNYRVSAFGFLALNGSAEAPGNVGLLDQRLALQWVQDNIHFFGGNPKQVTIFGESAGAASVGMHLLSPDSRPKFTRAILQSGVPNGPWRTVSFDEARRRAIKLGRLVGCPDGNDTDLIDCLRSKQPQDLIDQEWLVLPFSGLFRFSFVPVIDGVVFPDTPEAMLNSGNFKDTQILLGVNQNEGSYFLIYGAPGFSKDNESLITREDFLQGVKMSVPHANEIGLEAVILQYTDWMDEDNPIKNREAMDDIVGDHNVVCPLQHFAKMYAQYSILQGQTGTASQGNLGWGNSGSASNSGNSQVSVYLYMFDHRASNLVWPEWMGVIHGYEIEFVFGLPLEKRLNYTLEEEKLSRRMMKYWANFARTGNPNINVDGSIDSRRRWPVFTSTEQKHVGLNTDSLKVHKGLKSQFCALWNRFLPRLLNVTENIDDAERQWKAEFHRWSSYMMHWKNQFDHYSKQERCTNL

CCCCCCCCCCCNC(=O)Oc1ccc2c(c1)[C@]1(C)CCN(C)[C@@H]1N2C [Undecyl-, trimethyl-1,3a,8-hexahydro-1,2,3,3a,8,8a-pyrrol[2,3-b]indole-5(3aS, 8aR) undecylcarbamate]
ki × 10^-5 (± S.E.) [1, 10]: 0.8 ± 0.1
IC50 [2]: 2.9 µM

CCCNC(=O)Oc1ccc2c(c1)[C@]1(C)CCN(C)[C@@H]1N2C [n.Propyl-, trimethyl-1,3a,8-hexahydro-1,2,3a,8,8a-pyrrol[2,3-b]indole-5(3aS, 8aR) propylcarbamate]
ki × 10^-5 (± S.E.) [1, 10]: 0.9 ± 0.1
IC50 [2]: 2.5 µM

CCN(CC)C(=O)Oc1ccc2c(c1)[C@]1(C)CCN(C)[C@@H]1N2C [diethyl derivative, Pyrrolo [2,3-b]indol-5-ol,3,3a,8,8a-hexahydrol,3a,8-trimethyl-diethylcarbamate (ester), (3aS-cis)]
LD50 at 2 h [3]: 38 mg/kg
ki × 10^-5 (± S.E.) [1, 10]: 0.004
IC50 [2]: 680 µM

CCCCCCCNC(=O)Oc1ccc2c(c1)[C@]1(C)CCN(C)[C@@H]1N2C [heptyl derivative, trimethyl-1,3a,8-hexahydro-1,2,3,3a,8,8a-pyrrol[2,3-b]indole-5(3aS, 8aR) heptylcarbamate]
LD50 at 2 h [3]: 35 mg/kg
lethal dose 100 (LD100) (male Swiss mice [4]; injection): 45 mg/kg
lethal dose 50 compared with physostigmine (male Swiss mice [4]; ratio to LD50 of physostigmine): about 60 times greater
reduction in locomotor activity compared with the controls (male Swiss mice [5]; 5 mg/kg): 25%
influence on spontaneous locomotor activity (male Swiss mice [5]; between 0.1 mg/kg and 3 mg/kg): does not influence spontaneous activity
effect on spontaneous locomotor activity (male Swiss mice [5]; doses higher than 3 mg/kg): a depressing effect is observed
antagonism of scopolamine-induced stimulation (male Swiss mice [6]; 3 mg/kg against scopolamine 1 mg/kg): restored the activity to the control values
effect of the dose per se (male Swiss mice [6]; 3 mg/kg alone): ineffective
electrocorticographic amplitude [7]: an increase in its amplitude
electrocorticographic rate [7]: a slowing down of the electrocorticographic rate
effect on coloration of cerebral tissues (AchE inhibition) ([8]; 20 mg/kg, injected 15 minutes before sacrifice): evident diminution in the coloration of the cerebral tissues
duration of effect on coloration of cerebral tissues ([8]; 30 mg/kg): remained for more than one hour
effect on coloration of cerebral tissues (AchE inhibition) ([8]; 30 mg/kg, compared with 20 mg/kg): even more marked
AChE inhibition, brain (M ± SE) ([9]; 0.50 mg/kg i.p.): 25.55 ± 11.64%
AChE inhibition, serum (M ± SE) ([9]; 0.50 mg/kg i.p.): 20.85 ± 5.64%
AChE inhibition, brain (M ± SE) ([9]; 1.00 mg/kg i.p.): 50.00 ± 1.32%
AChE inhibition, serum (M ± SE) ([9]; 1.00 mg/kg i.p.): 59.40 ± 1.99%
AChE inhibition, brain (M ± SE) ([9]; 2.00 mg/kg i.p.): 53.62 ± 10.51%
AChE inhibition, serum (M ± SE) ([9]; 2.00 mg/kg i.p.): 67.42 ± 4.29%
AChE inhibition, brain (M ± SE) ([9]; 4.00 mg/kg i.p.): 72.35 ± 5.92%
AChE inhibition, serum (M ± SE) ([9]; 4.00 mg/kg i.p.): 79.42 ± 2.89%
% AChE Inhibition, brain, 10 minutes (M ± SE) [9, 11]: 50.00 ± 1.32%
% AChE Inhibition, brain, 60 minutes (M ± SE) [9, 11]: 28.46 ± 9.56%
% AChE Inhibition, brain, 120 minutes (M ± SE) [9, 11]: 22.45± 2.54%
% AChE Inhibition, serum, 10 minutes (M ± SE) [9, 11]: 59.40 ± 1.99%
% AChE Inhibition, serum, 60 minutes (M ± SE) [9, 11]: 41.15 ± 4.29%
% AChE Inhibition, serum, 120 minutes (M ± SE) [9, 11]: 21.53 ± 2.31%
ki × 10^-5 (± S.E.) [1, 10]: 2.8 ± 0.1
k2 (± S.E.) [1, 12]: 7.2 ± 3.6
k3 × 10^2 (± S.E.) [1, 13]: 0.71 ± 0.08
IC50 [2]: 1 µM
Ki [2]: 0.053 µM

CNC(=O)Oc1ccc2c(c1)[C@]1(C)CCN(C)[C@@H]1N2C [Eserine, reference compound]
LD50 at 2 h [3]: 0.6 mg/kg
effect on spontaneous locomotor activity (analogous to depressing effect of heptyl derivative) (male Swiss mice [5]; doses between 0.1 and 0.3 mg/kg): An analogous effect
effect on coloration of cerebral tissues (AchE inhibition) ([8]; 0.4 and 0.5 mg/kg): no evident effect
AChE inhibition, brain (M ± SE) ([9]; 0.15 mg/kg i.p.): 39.18 ± 4.32%
% AChE Inhibition, brain, 60 minutes (M ± SE) [9, 11]: 12.47 ± 2.83%
% AChE Inhibition, brain, 120 minutes (M ± SE) [9, 11]: 3.28 ± 1.99%
k2 (± S.E.) [1]: 8.8 ± 1.0
k3 × 10^2 (± S.E.) [1]: 5.4 ± 0.2
ki × 10^-5 (± S.E.) [1]: 26.6 ± 0.8

CCNC(=O)Oc1ccc2c(c1)[C@]1(C)CCN(C)[C@@H]1N2C [Ethyl-]
ki × 10^-5 (± S.E.) [1, 10]: 2.3 ± 0.1
k2 (± S.E.) [1, 12]: 3.5 ± 1.1
k3 × 10^2 (± S.E.) [1, 13]: 2.5 ± 0.3
IC50 [2]: 1 µM
Ki [2]: 0.13 µM

CCCCCCCCCNC(=O)Oc1ccc2c(c1)[C@]1(C)CCN(C)[C@@H]1N2C [n.nonyl derivative]
LD50 at 2 h [3]: 50 mg/kg
ki × 10^-5 (± S.E.) [1, 10]: 1.5 ± 0.1
IC50 [2]: 1.5 µM

CN1[C@@H]2C[C@@H](OC(=O)[C@H](CO)c3ccccc3)C[C@H]1[C@@H]1O[C@@H]12 [scopolamine, reference compound]
increase in basic locomotor activity (male Swiss mice [6]; scopolamine 1 mg/kg): 100%

CCCCNC(=O)Oc1ccc2c(c1)[C@]1(C)CCN(C)[C@@H]1N2C [n.butyl derivative]
LD50 at 2 h [3]: 6 mg/kg
ki × 10^-5 (± S.E.) [1, 10]: 2.0 ± 0.1
k2 (± S.E.) [1, 12]: 6.7 ± 3.5
k3 × 10^2 (± S.E.) [1, 13]: 0.45 ± 0.14
IC50 [2]: 3.5 µM
Ki [2]: 0.026 µM

CN(C)C(=O)Oc1ccc2c(c1)[C@]1(C)CCN(C)[C@@H]1N2C [dimethyl derivative, Pyrrolo [2,3-b]indol-5-ol,3,3a,8,8a-hexahydro-1,3a,8-trimethyl-dimethylcarbamate (ester),(3aS-cis)]
LD50 at 2 h [3]: 9 mg/kg
ki × 10^-5 (± S.E.) [1, 10]: 0.2 ± 0.05
k2 (± S.E.) [1, 12]: 8.8 ± 3.3
k3 × 10^2 (± S.E.) [1, 13]: 8.5 ± 1.2
IC50 [2]: 3.1 µM
Ki [2]: 0.348 µM
